Experimental data as given in ChEMBL document CHEMBL5233248, “Resveratrol - A comprehensive review of recent advances in anticancer drug design and development” (Eur J Med Chem, 2020).
“And” between values parts separate entries of the source, which are not always exact repeats. Equal values may be shown once. Blank lines part the entries; values can stand above or below the compound they belong to. Residues, ends and D or L forms follow the SMILES beside them. *: point of attachment. X1 = Oc1cc(O)cc(/C=C/c2ccc(O*)cc2)c1

Experiments:
MCF7 [1] = test: Anticancer activity against human MCF7 cells assessed as cell growth inhibition incubated for 24 hrs by MTT assay; format: functional, cell-based; conditions: MCF7, 24 h
[2] = Selectivity ratio of IC50 for human MCF7 cells to IC50 for human MDA-MB-231 cells; format: toxicity
[3] = Selectivity ratio of IC50 for human MDA-MB-231 cells to IC50 for human MCF7 cells
MDA-MB-231 [4] = test: Anticancer activity against human MDA-MB-231 cells assessed as cell growth inhibition incubated for 24 hrs by MTT assay; format: functional, cell-based; conditions: MDA-MB-231, 24 h
[5] = Cytotoxicity against human MCF-10A cells assessed as cell growth inhibition incubated for 24 hrs by MTT assay; format: toxicity, cell-based
HeLa [6] = test: Anticancer activity against human HeLa cells assessed as cell growth inhibition measured after 72 hrs by MTT assay; format: functional, cell-based; conditions: read-out: IC50
[7] = Anticancer activity against Lung adenocarcinoma cell line assessed as cell growth inhibition measured after 72 hrs by MTT assay; format: functional, cell-based
A549 [8] = test: Anticancer activity against human A549 cells assessed as cell growth inhibition measured after 72 hrs by MTT assay; format: functional, cell-based
A549 [9] = test: Potency index, ratio of test compound IC50 to Resveratrol IC50 for antiproliferative activity against human A549 cells; format: functional
HepG2 [10] = test: Anticancer activity against human HepG2 cells; format: functional, cell-based
A549 [11] = test: Anticancer activity against human A549 cells; format: functional, cell-based
HeLa [12] = test: Anticancer activity against human HeLa cells; format: functional, cell-based
A549 [13] = test: Anticancer activity against human A549 cells assessed as cell growth inhibition incubated for 48 hrs by Tryphan blue assay; format: functional, cell-based; conditions: A549, 48 h
CCRF-CEM [14] = test: Anticancer activity against human CEM cells assessed as cell growth inhibition incubated for 48 hrs by Tryphan blue assay; format: functional, cell-based
[15] = Potency index, ratio of test compound IC50 to Melphalan IC50 for antiproliferative activity against […] L1210 cells; format: functional
CCRF-CEM [16] = test: Anticancer activity against human CEM cells assessed as cell growth inhibition incubated for 48 hrs by MTT assay; format: functional, cell-based
[17] = Anticancer activity against human Molt 4/C8 cells assessed as cell growth inhibition incubated for 48 hrs by MTT assay; format: functional, cell-based; conditions: Molt4/C8, 48 h
L1210 = test: Anticancer activity against mouse L1210 cells assessed as cell growth inhibition incubated for 48 hrs by MTT assay; format: functional, cell-based; conditions: L1210, 48 h
NCI-H460 = test: Anticancer activity against human NCI-H460 assessed as cell growth inhibition incubated for 72 hrs by MTT assay; format: functional, cell-based; conditions: NCI-H460, 72 h
MCF7 [18] = test: Anticancer activity against human MCF7 assessed as cell growth inhibition incubated for 72 hrs by MTT assay; format: functional, cell-based; conditions: MCF7, 72 h
HCT-116 [19] = test: Anticancer activity against human HCT-116 assessed as cell growth inhibition incubated for 72 hrs by MTT assay; format: functional, cell-based; conditions: HCT-116, 72 h
MCF7 [20] = test: Anticancer activity against human MCF7 cells assessed as cell growth inhibition incubated for 48 hrs by MTS assay; format: functional, cell-based; conditions: MCF7, 48 h
[21] = Anticancer activity against human AZ-AHR cells assessed as cell growth inhibition incubate for 24 hrs by MTT assay; format: functional, cell-based
SK-BR-3 = test: Anticancer activity against human SK-BR-3 cells assessed as cell growth inhibition incubated for 24 hrs by MTT assay; format: functional, cell-based; conditions: SK-BR-3, 24 h
[22] = Cytotoxicity against mouse NIH3T3 cells assessed as cell growth inhibition by CyQuant assay; format: toxicity, cell-based
HeLa [23] = test: Anticancer activity against human HeLa cells assessed as cell growth inhibition; format: functional, cell-based
HepG2 [24] = test: Anticancer activity against human HepG2 cells assessed as cell growth inhibition incubated for 3 days by MTT assay; format: functional, cell-based; conditions: HepG2, 72 h
SK-OV-3 [25] = test: Anticancer activity against human SK-OV-3 cells assessed as cell growth inhibition incubated for 24 hrs […] by MTT assay; format: functional, cell-based; conditions: SK-OV-3, 24 h
[26] = Anticancer activity against human HOSE cells assessed as cell growth inhibition by LDH release assay; format: functional, cell-based
A-431 = test: Anticancer activity against human A-431 cells assessed as reduction of cell viability incubated for 48 hrs by MTT assay; format: functional, cell-based; conditions: A-431, 48 h
HEK293 = test: Anticancer activity against human HEK293 cells assessed as cell growth inhibition incubated for 3 days by MTT assay; format: functional, cell-based; conditions: HEK293, 72 h
HT-29 [27] = test: Anticancer activity against human HT-29 cells assessed as cell growth inhibition incubated for 3 days by MTT assay; format: functional, cell-based; conditions: HT-29, 72 h
[28] = Anticancer activity against human Peritoneal mesothelial cells assessed as cell growth inhibition by LDH release assay; format: functional, cell-based
BXPC-3 = test: Anticancer activity against human BXPC-3 cells assessed as cell growth inhibition incubated for 72 hrs by MTT assay; format: functional, cell-based; conditions: BXPC-3, 72 h
[29] = Cytotoxicity activity against human CCD-1059Sk cells assessed as cell growth inhibition incubated for 48 hrs in presence of Curcumin by MTS assay; format: toxicity, cell-based
ASPC1 = test: Anticancer activity against human ASPC1 cells assessed as cell growth inhibition incubated for 72 hrs by MTT assay; format: functional, cell-based; conditions: ASPC1, 72 h
MCF7 [30] = test: Anticancer activity against human MCF7 cells assessed as reduction of cell viability incubated for 48 hrs by MTT assay; format: functional, cell-based; conditions: MCF7, 48 h
MCF7 [31] = test: Anticancer activity against human MCF7 cells assessed as cell growth inhibition incubated for 3 days by MTT assay; format: functional, cell-based; conditions: MCF7, 72 h
A2780 [32] = test: Anticancer activity against human A2780 cells assessed as cell growth inhibition by LDH release assay; format: functional, cell-based
PANC-1 = test: Anticancer activity against human PANC-1 cells assessed as cell growth inhibition by CyQuant assay; format: functional, cell-based
A2780 [33] = test: Anticancer activity against human A2780 cells assessed as cell growth inhibition incubated for 24 hrs […] by MTT assay; format: functional, cell-based; conditions: A2780, 24 h
MCF7 [34] = test: Anticancer activity against human MCF7 cells assessed as cell growth inhibition by CyQuant assay; format: functional, cell-based
HT-29 [35] = test: Anticancer activity against human HT-29 cells assessed as cell growth inhibition incubated for 24 hrs by MTT assay; format: functional, cell-based; conditions: Homo sapiens, HT-29, 24 h
MDA-MB-231 [36] = test: Anticancer activity against human MDA-MB-231 cells assessed as cell growth inhibition by CyQuant assay; format: functional, cell-based
HeLa [37] = test: Anticancer activity against human HeLa cells assessed as cell growth inhibition incubated for 48 hrs by MTT assay; format: functional, cell-based
HaCaT = test: Anticancer activity against human HaCaT cells assessed as reduction of cell viability incubated for 48 hrs by MTT assay; format: functional, cell-based
[38] = Cytotoxicity activity against human CCD-1059Sk cells assessed as cell growth inhibition incubated for 48 hrs by MTS assay; format: toxicity, cell-based
U-251 = test: Anticancer activity against human U-251MG cells assessed as cell growth inhibition by CyQuant assay; format: functional, cell-based
Ishikawa = test: cells; conditions: Homo sapiens
Description: Anti-tumor activity against human ishikawa cells assessed as anti-estrogenic potential

HT-29 [39] = test: cells; conditions: Homo sapiens, HT-29, 48 h
Description: Anti cancer activity against human HT-29 cell assessed as cell growth inhibition incubated for 48 hrs by Brdu assay

HepG2 [40] = test: Anticancer activity against human HepG2 cells assessed as cell growth inhibition incubated for 24 hrs by MTT assay; format: functional, cell-based; conditions: HepG2, 24 h
[41] = Growth inhibition of human leukaemia cell line; format: functional
MDA-MB-231 [42] = test: Anticancer activity against human MDA-MB-231 cells assessed as reduction in cell viability measured after 48 hrs at 150 uM by MTT assay relative to control; format: functional
[43] = Anticancer activity against human HOSE cells assessed as cell growth inhibition incubated for 24 hrs […] by MTT assay; format: functional, cell-based
HL-60 = test: Anticancer activity against human HL-60 cells assessed as cell growth inhibition incubated for 48 hrs by MTT assay; format: functional, cell-based; conditions: HL-60, 48 h
Capan-2 = test: Anticancer activity against human Capan-2 cells assessed as cell growth inhibition incubated for 72 hrs by MTT assay; format: functional, cell-based; conditions: Capan-2, 72 h
OVCAR-3 = test: Anticancer activity against human OVCAR-3 cells assessed as cell growth inhibition incubated for 24 hrs […] by MTT assay; format: functional, cell-based; conditions: OVCAR-3, 24 h
HCT-116 [44] = test: Anticancer activity against human HCT-116 cells assessed as cell growth inhibition incubated for 5 days by SRB assay; format: functional, cell-based; conditions: HCT-116, 120 h
HCT-116 [45] = test: Anticancer activity against human HCT-116 cells assessed as cell growth inhibition; format: functional, cell-based
MCF-12A = test: Anticancer activity against human MCF-12A cells assessed as reduction of cell viability incubated for 48 hrs by MTT assay; format: functional, cell-based
MCF7 [46] = test: cells; conditions: Homo sapiens, MCF7, 48 h
Description: Anticancer activity against human MCF7 cells assessed as cell growth inhibition incubated for 48 hrs in presence of Curcumin by MTS assay

SK-OV-3 [47] = test: Anticancer activity against human SK-OV-3 assessed as cell growth inhibition incubated for 72 hrs by MTT assay; format: functional, cell-based; conditions: SK-OV-3, 72 h
[48] = Anticancer activity against human Peritoneal mesothelial cells assessed as cell growth inhibition incubated for 24 hrs […] by MTT assay; format: functional, cell-based
Caco-2 = test: cells; conditions: Homo sapiens, Caco-2, 48 h
Description: Anti cancer activity against human Caco-2 cell assessed as cell growth inhibition incubated for 48 hrs by Brdu assay

CYP1A = CYP1A (Homo sapiens, UniProt P04798+P05177); test: Inhibtion of CYP1A (unknown origin); format: ADME, protein assay
Renal cancer cell line = test: Growth inhibition of human Renal cancer cell line; format: functional
HepG2 [49] = test: cells; conditions: Homo sapiens, HepG2, 48 h
Description: Anti cancer activity against human HepG2 cell assessed as cell growth inhibition incubated for 48 hrs by Brdu assay

Structure (SMILES): Oc1ccc(-c2ccc3cc(O)ccc3c2)c(O)c1
IC50 (MCF7 [1]): 26.3 µM
Ratio IC50 [2]: 3.3
Ratio IC50 [3]: 1.9
IC50 (MDA-MB-231 [4]): 48.2 µM
IC50 at 24 h [5]: > 100 µM

Structure (SMILES): COc1ccc(/C(=C/c2cc(C(F)(F)F)ccc2Cl)C(=O)O)cc1
IC50 (HepG2 [10]): 7.49 µM
IC50 (A549 [11]): 3.77 µM
IC50 (HeLa [12]): 4.79 µM

Structure (SMILES): COc1cc(/C=C/c2ccc(C)cc2)cc(OC)c1OC
IC50 (A549 [13]): 2600 nM
IC50 (CCRF-CEM [14]): 2600 nM
Ratio IC50 [15]: 2
IC50 (CCRF-CEM [16]): 3.1 µM
IC50 [17]: 1400 nM
IC50 (L1210): 1200 nM

Structure (SMILES): CC(C)C[C@H](NC(=O)[C@H](CCCCN)NC(=O)[C@H](CO)NC(=O)[C@@H](N)CC(C)C)C(=O)Oc1ccc(/C=C/c2cc(O)cc(O)c2)cc1 (H-LSKL-X1)
IC50 (NCI-H460): 41 µM
IC50 (MCF7 [18]): 58 µM
IC50 (HCT-116 [19]): 78 µM

Continued, in another order:

IC50 (HeLa [6]; Homo sapiens, HeLa, 72 h): 8.16 µM
IC50 (A549 [8]; Homo sapiens, A549, 72 h): 4.38 µM
Structure (SMILES): O=S(=O)(Oc1cc(O)cc(/C=C/c2ccc(O)cc2)c1)c1ccccc1
IC50 ([7]; Lung adenocarcinoma cell line, 72 h): 10.2 µM
Ratio IC50 (A549 [9]): 15

IC50 (MCF7 [20]): 40.5 µM
IC50 (SK-BR-3): 110 µM
IC50 (HeLa [23]): 137 µM
IC50 (HepG2 [24]): 355 µM
IC50 (SK-OV-3 [25]): 380 µM
IC50 (A-431): 49.4 µM
IC50 (HT-29 [27]): 70 µM
IC50 (BXPC-3): 28 µM
IC50 (ASPC1): 25 µM
IC50 (HeLa [6]; hela): 98.2 µM and 10.5 µM
IC50 (MCF7 [30]): 24.6 µM
IC50 (MCF7 [1]): 88.2 µM
IC50 (MCF7 [31]): 127 µM
IC50 (A2780 [32]): 65 µM
IC50 (PANC-1): 70 µM
IC50 (A2780 [33]): 48 µM
IC50 (MCF7 [34]): 68.3 µM
IC50 (HT-29 [35]): 130 µM
IC50 (MDA-MB-231 [36]): 40 µM
IC50 (HeLa [37]): 152 µM
IC50 (A549 [8]; a549): 66.2 µM and 10.5 µM
IC50 (U-251): > 50 µM
IC50 (Ishikawa): 3.4 µM
IC50 (HT-29 [39]): 1.12 mM
IC50 (HepG2 [40]): 54.9 µM
IC50 (HL-60): 64.1 µM
IC50 (OVCAR-3): 480 µM
IC50 (HCT-116 [44]): 31 µM
IC50 (HCT-116 [45]): 19.4 µM
IC50 (MDA-MB-231 [4]): 90.6 µM
IC50 (MCF7 [46]): 61.7 µM
IC50 (SK-OV-3 [47]): 48 µM
IC50 (Caco-2): 190 µM
IC50 (CYP1A): 230 nM
GI50 (Renal cancer cell line): 15.9 µM
IC50 (HepG2 [49]): 111 µM
Structure (SMILES): Oc1ccc(/C=C/c2cc(O)cc(O)c2)cc1 [RESVERATROL]
IC50 [21]: 19.4 µM
IC50 [22]: > 20 µM
IC50 [26]: 421 µM
IC50 (HEK293): 12 µM
IC50 [28]: 495 µM
IC50 at 48 h [29]: 83.1 µM
IC50 ([7]; lung adenocarcinoma cell line): 10.5 µM and 24.9 µM
IC50 (HaCaT): 85.2 µM
IC50 at 48 h [38]: 188 µM
GI50 [41]: 15.9 µM
Activity (MDA-MB-231 [42]): 58.45%
IC50 [43]: 485 µM
IC50 (Capan-2): 26.5 µM
IC50 (MCF-12A): 93.5 µM
IC50 [48]: 465 µM
IC50 at 24 h [5]: > 100 µM
